We go through nine molecules from article PMC6920923, “Improving In Vivo Brain Delivery of Monoclonal Antibody Using Novel Cyclic Peptides” (Pharmaceutics, 2019).

“Also recorded” adds a separate entry of the source. Positions of bridges follow the written chain, without caps; N, C: chain ends. Residues, ends and D or L forms follow the SMILES beside them.

Assay [1] concerns the target T1, EC1 domain of E-cadherin (Homo sapiens, UniProt P12830).
T1 sequence (P12830 155-262 limits assumed): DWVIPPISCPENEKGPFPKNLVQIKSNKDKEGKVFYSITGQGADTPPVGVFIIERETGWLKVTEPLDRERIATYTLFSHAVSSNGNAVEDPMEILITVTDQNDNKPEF
The assay can be described thus: SPR binding to immobilized EC1 domain of E-cadherin. Particulars: authors' separate study; for Kd: EC1 immobilized on streptavidin chip via Streptag I at N-terminus. The source says:
However, it was not yet clear whether the difference in activity was due to additive activity by the two sequences (Thr-Pro-Pro-Val and Ser-His-Ala-Val) or domination by only one sequence. As mentioned above, there was a trend that cyclic ADTHAV was slightly better than ADTC5. Because it is difficult to differentiate the activities of cyclic ADTHAV and ADTC5 in vivo, we compared their binding properties to the EC1 domain of E-cadherin using SPR experiments in a separate study. After optimizing the SPR running conditions, the EC1 protein was immobilized on the streptavidin chip via the Streptag I sequence on the N-terminus of the EC1 domain followed by injection of various peptide concentrations. […] In the future, the mechanism of cyclic ADTHAV binding to the EC1-domains of E-cadherin and VE-cadherin will be evaluated.
Background: SPR reads the build-up and loss of mass on a sensor chip optically.

Assay [2] deals with brains of C57BL/6 mice. The assay can be described thus: In vivo brain delivery of IRdye800CW-IgG mAb (NIRF quantification). The conditions noted are these: n = 3; for amount of IgG mAb in the brain (brain deposition): IgG mAb 21.6 nmol/kg with or without 13 µmol/kg peptide, i.v. tail vein, 15 min circulation, PBS/0.5% Tween-20 perfusion, NIRF (Odyssey CLx) of brain homogenate, mean ± SEM; for brain delivery of IgG mAb compared to control (IgG mAb alone), in words: IgG mAb 21.6 nmol/kg, peptide 13 µmol/kg i.v., ANOVA Student–Newman–Keuls. The protocol: The activity of each peptide in enhancing BBB penetration was evaluated by delivering IRdye800CW donkey anti-goat IgG mAb in C57BL/6 mice; the amounts of mAb in the brain were determined using near infrared fluorescence (NIRF) imaging. Each group contains 3 mice per group (n = 3) with a mixture of male and female mice, selected randomly for each arm of the study. The injection solution was prepared by adding 600 µL PBS into 0.5 mg lyophilized IgG mAb; then, approximately 1.5 mg lyophilized peptide was added into the mixture yielding the injectable formulation. A 100 µL solution of a mixture containing IgG mAb (21.6 nmol/kg) along with 13 µmol/kg peptide was administered via tail vein. As a control, 100 µL of IgG mAb alone was administered via i.v. route. After the delivered molecules had been circulating for 15 min, the mice were sacrificed; then, a mixture of PBS with 0.5% Tween-20 was administered for cardiac perfusion to remove the blood and delivered molecules from the brain microvessels. The brain and other organs such as lung, heart, spleen, liver, and kidney were harvested and rinsed with PBS. The isolated organs were scanned with Odyssey® CLx for mAb quantification.
The brain deposition of IgG mAb was also quantified by NIRF imaging in brain homogenates. The isolated brains were mechanically homogenized in 2.0 mL of PBS. To make the standard solutions, IRDye800CW IgG mAb stock solution (70 µg/mL) was prepared; it was then diluted with various amounts of PBS to make six different mAb concentrations. To generate a calibration curve, the brain homogenate (200 µL) was aliquoted out to a 96-well plate. A total of 10 µL of each concentration of IgG mAb was added to three different wells of blank brain homogenates. The standard spiked homogenates were at a range of 10–200 ng/mL IgG mAb in brain homogenate. The wells were scanned using the Odyssey® CLx scanner, and the signal intensities vs. concentrations of mAb per gram of brain were used to generate a calibration curve.
ANOVA with Student–Newman–Keuls was used to compare the data for determining statistical significance for IgG mAb deposition in the brains. A p-value of less than 0.05 was used as a criterion for a significant difference in data comparison. Numeric results are presented as: mean ± SEM.
A calibration curve was generated to determine the amount of IgG mAb in the brain by spiking blank brain homogenates with a concentration range from 10 to 200 ng/mL, and good linearity with R^2 ≥ 0.98 was achieved. […] The average amounts of IgG mAb in the brains of HAV6-treated and control animals were 3.4 ± 0.4 and 4.0 ± 0.5 pmol/g brain, respectively. In contrast, the average amounts of mAb in the brains of cyclic HAVN1- and HAVN2-treated mice were 8.6 ± 0.5 and 8.8 ± 0.6 pmol/g brain, respectively. The BBB modulatory activities of ADTC5, linear ADTHAV, and cyclic ADTHAV were also compared to the control (Figure 5). […] The average brain deposition of IgG mAb were 11.8 ± 0.5, 15.7 ± 0.8, and 13.3 ± 0.7 pmol/g brain for linear ADTHAV, cyclic ADTHAV, and ADTC5, respectively.

In assay [3] the test system is MDCK cell monolayers. The conditions noted are these: cited from earlier work. The protocol: Previously, cyclic cHAVc1 (cyclo(1,8)Ac-CSHAVASC-NH2) and cHAVc3 (cyclo(1,6)Ac-CSHAVC-NH2) were prepared and compared to a linear HAV4 (Ac-SHAVAS-NH2) in modulating the intercellular junctions in vitro and in vivo [19]. […] An alanine scanning study was carried out to evaluate the role of each amino acid in HAV6 peptide, and the biological activity of each alanine mutant peptide was evaluated in lowering the TEER values of MDCK cell monolayers. Mutation of the Ser1 to Ala1 residue reduced the junction modulatory activity of the HAV6 mutant; ...

Assay [4] has as its target EC1 domain of E-cadherin. The assay can be described thus: SPR; EC1 protein immobilised on a streptavidin chip via the Streptag I sequence on its N-terminus; various peptide concentrations injected.

The term Kd denotes the equilibrium constant for the complex coming apart. Consider `CC(=O)N[C@H]1CSSC[C@@H](C(N)=O)NC(=O)[C@H](C(C)C)NC(=O)[C@@H]2CCCN2C(=O)[C@@H]2CCCN2C(=O)[C@H]([C@@H](C)O)NC(=O)[C@H](CC(=O)O)NC1=O` [ADTC5, Cyclo(1,7)Ac-CDTPPVC-NH2] (Ac-CDTPPVC-NH2; disulfide 1-7), for which binding in assay [1] was characterised by a dissociation constant (Kd) of 26.8 µM.
Regarding `CC(C)[C@@H]1NC(=O)[C@H](C)NC(=O)[C@H](Cc2c[nH]cn2)NC(=O)[C@H](CO)NC(=O)[C@H](C(C)C)NC(=O)[C@@H]2CCCN2C(=O)[C@@H]2CCCN2C(=O)[C@H]([C@@H](C)O)NC1=O` [cyclic ADTHAV, Cyclo(1,8)TPPVSHAV] (cyclo(TPPVSHAV)), in assay [1], the Kd came to 0.114 µM and the “binding affinity to EC1 domain of E-cadherin vs ADTC5, in words” value is listed as “higher binding affinity”. In assay [1] (listed as Cyclic ADTHAV), the “binding affinity to EC1 domain of E-cadherin vs ADTC5, in words” value is listed as “better binding affinity to the EC1 domain of E-cadherin than does ADTC5”. Besides, the “BBB modulatory activity to deliver IgG mAb compared to cyclic HAVN2, in words” value in assay [2] (13 µmol/kg peptide, 15 min) is “significantly better than that of cyclic HAVN2”. Besides, the “amount of IgG mAb in the brain (brain deposition)” value (“amount of IgG mAb in the brain” below) in assay [2] worked out at 15.7 ± 0.8 pmol/g brain. The “brain delivery of IgG mAb compared to control (IgG mAb alone), in words” value in assay [2] (15 min) was “significantly better than in the PBS control”.
Consider “Ac-SHAVAS-NH2 [HAV4, earlier linear HAV peptide]”, for which, in assay [3] (lowering TEER of MDCK cell monolayers, ref [34]), the “junction modulatory activity of HAV6 analogues (alanine scan), in words” value is listed as “enhanced modulatory activity of the peptide compared to HAV6”.
As to Ac-TPPVSHAV-NH2 [linear ADTHAV], the “amount of IgG mAb in the brain” value in assay [2] is 11.8 ± 0.5 pmol/g brain. Further, the “brain delivery of IgG mAb compared to control (IgG mAb alone), in words” value in assay [2] (15 min) is on record as “significantly better than in the PBS control”.
With “Cyclo(1,5)SHAVS (head to tail) [HAVN2, N-to-C-termini cyclo-pentapeptide derived from HAV6]”, in assay [2] (13 µmol/kg peptide, 15 min), the “BBB modulatory activity / IgG mAb brain delivery compared to HAV6, in words” value was “significantly enhanced; also recorded: improvement in the BBB modulatory activity; also recorded: better BBB modulatory effects than their linear counterpart, HAV6” and the “BBB modulatory activity compared to HAVN1, in words” value is “removal of one serine residue did not influence the BBB modulatory activity of HAVN2 compared to HAVN1”. Besides, the “amount of IgG mAb in the brain” value in assay [2] is reported as 8.8 ± 0.6 pmol/g brain. Also, the “brain delivery of IgG mAb compared to control (IgG mAb alone), in words” value in assay [2] (15 min) is recorded as “significantly enhanced”.
As for “Cyclo(1,6)SHAVSS (head to tail) [HAVN1, N-to-C-termini cyclo-hexapeptide derived from HAV6]”, the “BBB modulatory activity / IgG mAb brain delivery compared to HAV6, in words” value in assay [2] (13 µmol/kg peptide, 15 min) was “significantly enhanced; also recorded: improvement in the BBB modulatory activity; also recorded: better BBB modulatory effects than their linear counterpart, HAV6”. Moreover, the “amount of IgG mAb in the brain” value in assay [2] amounted to 8.6 ± 0.5 pmol/g brain. Moreover, in assay [2] (15 min), the “brain delivery of IgG mAb compared to control (IgG mAb alone), in words” value is recorded as “significantly enhanced”.
On to “cyclo(1,8)Ac-CSHAVASC-NH2 (disulfide) [cHAVc1, earlier cyclic HAV peptide]”, for which the “junction modulatory activity in MDCK cell monolayers, in words” value in assay [3] (compared to HAV4 (and cHAVc1), ref [19]) is given as “same junction modulatory activity as HAV4 peptide”.

B1: Cyclic ADTHAV (peptide)
peptide: TPPVSHAV
modifications: cyclo(1,8): N-to-C terminal peptide bond
B1 registered a Kd in assay [4] of 0.114 µM.

B2: Cyclic ADTC5 (peptide)
peptide: Ac-CDTPPVC-NH2
modifications: disulfide 1-7
SMILES: CC(=O)N[C@H]1CSSC[C@@H](C(N)=O)NC(=O)[C@H](C(C)C)NC(=O)[C@@H]2CCCN2C(=O)[C@@H]2CCCN2C(=O)[C@H]([C@@H](C)O)NC(=O)[C@H](CC(=O)O)NC1=O
Consider B2, for which the Kd in assay [4] is 26.8 µM.
